Measured values from patent US9487515B2, “Compounds modulating c-fms and/or c-kit activity and uses therefor” (Plexxikon Inc., priority 2006, dated 2016).

Target: c-kit (Homo sapiens, UniProt P10721)
Test: c-kit assays of Examples 40 and 41 (AlphaScreen kinase assays at 10 and 100 μM ATP, 33P-ATP filter assay, M-07e SCF-stimulated proliferation and phosphorylation)

Chain of c-kit (P10721 with tags, fused parts or gaps): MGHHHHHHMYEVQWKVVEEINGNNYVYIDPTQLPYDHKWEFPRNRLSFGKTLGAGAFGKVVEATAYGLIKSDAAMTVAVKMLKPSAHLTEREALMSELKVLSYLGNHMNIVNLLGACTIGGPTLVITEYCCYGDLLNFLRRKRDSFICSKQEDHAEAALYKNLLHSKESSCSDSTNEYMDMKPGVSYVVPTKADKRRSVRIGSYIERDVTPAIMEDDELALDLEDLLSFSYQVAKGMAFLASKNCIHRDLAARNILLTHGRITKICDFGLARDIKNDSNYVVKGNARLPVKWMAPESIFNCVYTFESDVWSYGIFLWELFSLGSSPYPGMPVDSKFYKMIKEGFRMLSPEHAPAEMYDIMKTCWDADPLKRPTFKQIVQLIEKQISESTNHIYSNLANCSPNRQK

SMILES	IC50 [nM]
COc1cccc(CNc2ccc(Cc3c[nH]c4ncccc34)cn2)c1F [P-0352, (2-Fluoro-3-methoxy-benzyl)-[5-(1H-pyrrolo[2,3-b]pyridin-3-ylmethyl)-pyridin-2-yl]-amine]	< 1000
O=C(c1ccc(NCc2ccccc2)nc1)c1c[nH]c2ncccc12 [P-0002, (6-Benzylamino-pyridin-3-yl)-(1H-pyrrolo[2,3-b]pyridin-3-yl)-methanone]	< 1000
O=C(Nc1ccc(Cc2c[nH]c3ncccc23)cn1)c1ccc(F)cc1Cl [P-0101, 2-Chloro-4-fluoro-N-[5-(1H-pyrrolo[2,3-b]pyridin-3-ylmethyl)-pyridin-2-yl]-benzamide]	< 1000
COc1ccccc1CNC(=O)n1nc(C)c(Cc2c[nH]c3ncccc23)c1C [P-0145, 3,5-Dimethyl-4-(1H-pyrrolo[2,3-b]pyridin-3-ylmethyl)-pyrazole-1-carboxylic acid 2-methoxy-benzylamide]	< 1000
Cc1cnc2[nH]cc(Cc3ccc(NCc4ccccc4C(F)(F)F)nc3)c2c1 [P-0276, [5-(5-Methyl-1H-pyrrolo[2,3-b]pyridin-3-ylmethyl)-pyridin-2-yl]-(2-trifluoromethyl-benzyl)-amine]	< 1000
CC(Nc1ccc(Cc2c[nH]c3ncccc23)cn1)c1ccc(S(C)(=O)=O)cc1 (stereo not drawn) [P-0097, [1-(4-Methanesulfonyl-phenyl)-ethyl]-[5-(1H-pyrrolo[2,3-b]pyridin-3-ylmethyl)-pyridin-2-yl]-amine]	< 1000
Clc1cccc(CNc2ccc(Cc3c[nH]c4ncccc34)cn2)c1 [P-0129, (3-chloro-benzyl)-[5-(1H-pyrrolo[2,3-b]pyridin-3-ylmethyl)-pyridin-2-yl]-amine]	< 1000
O=C(Nc1ccc(Cc2c[nH]c3ncccc23)cn1)c1ccnc(Cl)c1 [P-0123, 2-Chloro-N-[5-(1H-pyrrolo[2,3-b]pyridin-3-ylmethyl)-pyridin-2-yl]-isonicotinamide]	< 1000
CNc1ncccc1CNc1ccc(Cc2c[nH]c3ncccc23)cn1 [P-0385, Methyl-(3-{[5-(1H-pyrrolo[2,3-b]pyridin-3-ylmethyl)-pyridin-2-ylamino]-methyl}-pyridin-2-yl)-amine]	< 1000
COc1cccc(CNc2ccc(Cc3c[nH]c4ncccc34)cn2)n1 [P-0224, (6-Methoxy-pyridin-2-ylmethyl)-[5-(1H-pyrrolo[2,3-b]pyridin-3-ylmethyl)-pyridin-2-yl]-amine]	< 1000
Cc1nc(NCc2ccc(Cl)cc2)ccc1Cc1c[nH]c2ncccc12 [P-0014, (4-Chloro-benzyl)-[6-methyl-5-(1H-pyrrolo[2,3-b]pyridin-3-ylmethyl)-pyridin-2-yl]-amine]	< 1000
FC(F)Oc1ccccc1CNc1ccc(Cc2c[nH]c3ncccc23)cn1 [P-0367, (2-Difluoromethoxy-benzyl)-[5-(1H-pyrrolo[2,3-b]pyridin-3-ylmethyl)-pyridin-2-yl]-amine]	< 1000
CC(Nc1ccc(Cc2c[nH]c3ncccc23)cn1)c1ccccc1F (stereo not drawn) [P-0127, [1-(2-Fluoro-phenyl)-ethyl]-[5-(1H-pyrrolo[2,3-b]pyridin-3-ylmethyl)-pyridin-2-yl]-amine]	< 1000
O=C(Nc1ccc(Cc2c[nH]c3ncccc23)cn1)c1cccc(OC(F)(F)F)c1 [P-0113, N-[5-(1H-Pyrrolo[2,3-b]pyridin-3-ylmethyl)-pyridin-2-yl]-3-trifluoromethoxy-benzamide]	< 1000
CCOc1ccccc1CNc1ccc(Cc2c[nH]c3ncccc23)cn1 [P-0288, (2-Ethoxy-benzyl)-[5-(1H-pyrrolo[2,3-b]pyridin-3-ylmethyl)-pyridin-2-yl]-amine]	< 1000
COc1ccc(CNc2ccc(Cc3c[nH]c4ncccc34)cn2)c(OC)n1 [P-0370, (2,6-Dimethoxy-pyridin-3-ylmethyl)-[5-(1H-pyrrolo[2,3-b]pyridin-3-ylmethyl)-pyridin-2-yl]-amine]	< 1000
Cc1ccc(C(=O)Nc2ccc(Cc3c[nH]c4ncccc34)cn2)cn1 [P-0108, 6-Methyl-N-[5-(1H-pyrrolo[2,3-b]pyridin-3-ylmethyl)-pyridin-2-yl]-nicotinamide]	< 1000
Cc1nc(NCc2ccc(F)cc2)sc1Cc1c[nH]c2ncccc12 [P-0163, (4-Fluoro-benzyl)-[4-methyl-5-(1H-pyrrolo[2,3-b]pyridin-3-ylmethyl)-thiazol-2-yl]-amine]	< 1000
c1ccc(CNc2ccc(Cc3c[nH]c4ncccc34)cn2)cc1 [P-0001, benzyl-[5-(1H-pyrrolo[2,3-b]pyridin-3-ylmethyl)-pyridin-2-yl]-amine]	< 1000
c1cnc(N2CCOCC2)c(CNc2ccc(Cc3c[nH]c4ncccc34)cn2)c1 [P-0347, (2-Morpholin-4-yl-pyridin-3-ylmethyl)-[5-(1H-pyrrolo[2,3-b]pyridin-3-ylmethyl)-pyridin-2-yl]-amine]	< 1000
O=C(Nc1ccc(Cc2c[nH]c3ncccc23)cn1)c1cccc(F)c1 [P-0121, 3-Fluoro-N-[5-(1H-pyrrolo[2,3-b]pyridin-3-ylmethyl)-pyridin-2-yl]-benzamide]	< 1000
FC(F)(F)c1ccccc1CNc1ccc(Cc2c[nH]c3ncccc23)cn1 [P-0226, [5-(1H-Pyrrolo[2,3-b]pyridin-3-ylmethyl)-pyridin-2-yl]-(2-trifluoromethyl-benzyl)-amine]	< 1000
Fc1cc(C(F)(F)F)ccc1CNc1ccc(Cc2c[nH]c3ncccc23)cn1 [P-0344, (2-Fluoro-4-trifluoromethyl-benzyl)-[5-(1H-pyrrolo[2,3-b]pyridin-3-ylmethyl)-pyridin-2-yl]-amine]	< 1000
O=C(Nc1ccc(Cc2c[nH]c3ncccc23)cn1)c1cccc(C(F)(F)F)c1 [P-0114, N-[5-(1H-Pyrrolo[2,3-b]pyridin-3-ylmethyl)-pyridin-2-yl]-3-trifluoromethyl-benzamide]	< 1000
O=C(Nc1ccc(Cc2c[nH]c3ncccc23)cn1)c1ccc(F)c(F)c1 [P-0116, 3,4-Difluoro-N-[5-(1H-pyrrolo[2,3-b]pyridin-3-ylmethyl)-pyridin-2-yl]-benzamide]	< 1000

Continued, values first:

IC50 [nM]	SMILES
< 1000	N#Cc1cnc2[nH]cc(Cc3ccc(NCc4ccc(Cl)cc4)nc3)c2c1 [P-0257, 3-[6-(4-Chloro-benzylamino)-pyridin-3-ylmethyl]-1H-pyrrolo[2,3-b]pyridine-5-carbonitrile]
< 1000	Fc1ccc(Cl)cc1CNc1ccc(Cc2c[nH]c3ncccc23)cn1 [P-0382, (5-Chloro-2-fluoro-benzyl)-[5-(1H-pyrrolo[2,3-b]pyridin-3-ylmethyl)-pyridin-2-yl]-amine]
< 1000	COc1ccc(F)cc1CNc1ccc(Cc2c[nH]c3ncccc23)cn1 [P-0366, (5-Fluoro-2-methoxy-benzyl)-[5-(1H-pyrrolo[2,3-b]pyridin-3-ylmethyl)-pyridin-2-yl]-amine]
< 1000	Fc1ccc(CNc2ccc(Cc3c[nH]c4ncccc34)cn2)c(C(F)(F)F)c1 [P-0225, (4-Fluoro-2-trifluoromethyl-benzyl)-[5-(1H-pyrrolo[2,3-b]pyridin-3-ylmethyl)-pyridin-2-yl]-amine]
< 1000	Clc1ccc(CNc2ncc(Cc3c[nH]c4ncccc34)cn2)c(Cl)c1 [P-0305, (2,4-Dichloro-benzyl)-[5-(1H-pyrrolo[2,3-b]pyridin-3-ylmethyl)-pyrimidin-2-yl]-amine]
< 1000	Clc1cnc2[nH]cc(Cc3sc(NCc4c(Cl)cncc4Cl)nc3Cl)c2c1 [P-0253, [4-Chloro-5-(5-chloro-1H-pyrrolo[2,3-b]pyridin-3-ylmethyl)-thiazol-2-yl]-(3,5-dichloro-pyridin-4-ylmethyl)-amine]
< 1000	O=C(c1ccc(NCc2ccccc2F)nc1)c1c[nH]c2ncc(Cl)cc12 [P-0404, (5-chloro-1H-pyrrolo[2,3-b]pyridin-3-yl)-[6-(2-fluoro-benzylamino)-pyridin-3-yl]-methanone]
< 1000	Fc1ccc(CNc2ncc(Cc3c[nH]c4ncccc34)cn2)c(F)c1 [P-0306, (2,4-Difluoro-benzyl)-[5-(1H-pyrrolo[2,3-b]pyridin-3-ylmethyl)-pyrimidin-2-yl]-amine]
< 1000	COc1cnc2[nH]cc(Cc3ccc(NCc4ccccc4Cl)nc3)c2c1 [P-0328, (2-Chloro-benzyl)-[5-(5-methoxy-1H-pyrrolo[2,3-b]pyridin-3-ylmethyl)-pyridin-2-yl]-amine]
< 1000	Fc1cnc2[nH]cc(Cc3ccc(NCc4ccccc4Cl)nc3)c2c1 [P-0327, (2-Chloro-benzyl)-[5-(5-fluoro-1H-pyrrolo[2,3-b]pyridin-3-ylmethyl)-pyridin-2-yl]-amine]
< 1000	Fc1ccc(F)c(CNc2ncc(Cc3c[nH]c4ncc(Cl)cc34)cn2)c1 [P-0267, [5-(5-Chloro-1H-pyrrolo[2,3-b]pyridin-3-ylmethyl)-pyrimidin-2-yl]-(2,5-difluoro-benzyl)-amine]
< 1000	Fc1ccc(Cl)c(CNc2ncc(Cc3c[nH]c4ncc(Cl)cc34)cn2)c1 [P-0408, (2-Chloro-5-fluoro-benzyl)-[5-(5-chloro-1H-pyrrolo[2,3-b]pyridin-3-ylmethyl)-pyrimidin-2-yl]-amine]
< 1000	FC(F)(F)c1ccccc1CNc1ncc(Cc2c[nH]c3ncccc23)cn1 [P-0302, [5-(1H-Pyrrolo[2,3-b]pyridin-3-ylmethyl)-pyrimidin-2-yl]-(2-trifluoromethyl-benzyl)-amine]
< 1000	FC(F)(F)c1ccccc1CNc1ccc(Cc2c[nH]c3ncc(Cl)cc23)cn1 [P-0275, [5-(5-Chloro-1H-pyrrolo[2,3-b]pyridin-3-ylmethyl)-pyridin-2-yl]-(2-trifluoromethyl-benzyl)-amine]
< 1000	Fc1ccc(CNc2ccc(Cc3c[nH]c4ncccc34)cn2)nc1 [P-0355, (5-Fluoro-pyridin-2-ylmethyl)-[5-(1H-pyrrolo[2,3-b]pyridin-3-ylmethyl)-pyridin-2-yl]-amine]
< 1000	Fc1cc(Cl)ccc1CNc1ccc(Cc2c[nH]c3ncccc23)cn1 [P-0345, (4-Chloro-2-fluoro-benzyl)-[5-(1H-pyrrolo[2,3-b]pyridin-3-ylmethyl)-pyridin-2-yl]-amine]
< 1000	Fc1ccc(CNc2ccc(Cc3c[nH]c4ncccc34)cn2)c(F)c1 [P-0212, (2,4-Difluoro-benzyl)-[5-(1H-pyrrolo[2,3-b]pyridin-3-ylmethyl)-pyridin-2-yl]-amine]
